From patent US9511120B2, “Use of the angiotensin-(1-9) peptide or derivatives thereof, use of vectors overexpressing the ACE2 enzyme that produces angiotensin-(1-9) for preparing medicaments useful for preventing, reverting, inhibiting and/or reducing hypertension and/or inducing vasodilation” (PONTIFICA UNIVERSIDAD CATÓLICA DE CHILE, priority 2012, dated 2016)

Legend:
MCP-1 mRNA = experiment: Angiotensin II infusion model: MCP-1 mRNA levels in the aortic wall; type: in vivo, rat
Procedure: (§1) Rats were subjected to the model of angiotensin II infusion (Grobe et al.: Am. J. Physiol. 292: H736-42, 2007). The animals were separated randomly into the following experimental groups: controls (Sham or pseudo-operated), infused with angiotensin II (300 ng/kg min), infused with angiotensin II and angiotensin-(1-9) (300 ng/kg min and 602 ng/kg min, respectively), and then infused with angiotensin II, angiotensin-(1-9) and the angiotensin-(1-7) receptor antagonist, A779 (300 ng/kg min, 602 ng/kg min, and 100 ng/kg min, respectively). In all cases the pumps operated at a flow of 0.5 μL/h and were implanted in the right jugular vein through a catheter fitted in an intrascapular subcutaneous pocket under anesthesia with ketamine HCl/xylazine (35 and 7 mg/kg i.p., respectively), for a period of 14 days.
(§2) The procedure described by Ocaranza et al. (Hypertension 48:572-8, 2006) was followed. Briefly, total RNA was isolated from the aorta using the trizol method and quantified by spectroscopy at 260 nm/280 nm. The cDNA was obtained by reverse transcription from 1.5 μg of total RNA treated with DNAse. […] The band intensity was quantified by densitometry and normalized to the 18S ribosomal RNA band.

[1] = system: thoracic aortas of hypertensive rats by angiotensin II infusion; experiment: Angiotensin II infusion model: aortic hypertrophy by morphometry; type: in vivo, rat; conditions: thoracic aorta, 14 days infusion
Procedure: as §1
Aortic hypertrophy was determined by morphometry. Sections of the descending aorta of 5 μm thick, which were previously fixed in Bouin (1.3% picric acid, 9.5% formaldehyde and 4.8% acetic acid) for 24 hours, embedded in paraffin and stained with hematoxylin-eosin, were used, to be examined later in a light microscope as described by Igase et al. (Am. J. Physiol. 289:H1013-9, 2005). Briefly, images of the aortas were captured by a video camera (Nikon) fixed to a microscope (Nikon), and projected on a monitor; using the software Nis-Element. Lumen areas (LA) and total areas (TA) were calculated and recorded. The tunica media area (TMA) was obtained from the difference between the TA and LA of the aorta. The tunica media thickness (TMT) was defined as the region delimited by the external elastic lamina (EEL) and internal elastic lamina (IEL).

collagen I = experiment: Angiotensin II infusion model: collagen I protein levels in the aortic wall by Western blot; type: in vivo, rat; conditions: aortic wall
Procedure: as §1
For the determination of collagen I and TGFβ-1, 30 μg and 50 μg of total proteins were used, respectively, diluted in SDS reducing buffer (50 mM tris-HCl, pH 7.4, NP-40 10%, NaCl 1M, Na deoxycholate 5%, EDTA 10 mg/mL, SDS 10%, aprotinin 1 mg/mL, leupeptin 0.1 mg/mL, PMSF 10 mM), they were then separated by SDS-PAGE gel electrophoresis 7%, and transferred to nitrocellulose membranes of […] to 300 mA for 1 h. The transfer of proteins was monitored by Ponceau red staining. […]

[2] = system: hypertensive rats by administration of angiotensin II; experiment: Hypertension induced by angiotensin II infusion: body mass, cardiac mass, systolic blood pressure; type: in vivo, rat
Procedure: as §1
Systolic blood pressure (SBP) was measured by the tail plethysmographic method in the animals. To such end, rats were lightly anesthetized with ethyl ether. The measurement was performed once a week by researchers blind to the treatment (Ocaranza et al. J. Hypertens. 20:413-20, 2002).
The degree of cardiac hypertrophy (CH) was measured by the ratio of the cardiac mass (CM), the body mass (BM) and relative cardiac mass (RCM; [CM/BM]*100) (Ocaranza et al., J. Hypertens. 28:1054-1064, 2010).
Four experimental groups of rats were established as described in Example 1. Group 1 corresponds to rats which were infused with saline (Sham). Group 2 corresponds to rats which were infused with only angiotensin II. Group 3 correspond to rats which were co-infused with angiotensin II and angiotensin-(1-9). And Group 4 corresponds to rats which were co-infused with angiotensin II, angiotensin-(1-9) and A779.

[3] = system: cardiomyocyte hypertrophy induced by Ang II in vivo; experiment: Angiotensin II infusion model: cardiomyocyte hypertrophy (area and perimeter); set-up: species or system rat; conditions: two weeks
Procedure: as §1
The middle portion of the left ventricle (LV) was dehydrated at room temperature for 24 h in Bouin and then embedded in paraffin. Sections of 10-15 μm thick were taken and stained with hematoxylin-eosin, to be examined later in a light microscope in order to observe their general morphological characteristics. Cardiomyocyte size was determined according to Nakamura et al. (Circulation, 98:794-9, 1998). Briefly, images of the cells were captured using a Nikon DS Fi1 camera and projected on a monitor using a software program. The cardiomyocyte area and perimeter were measured and recorded, using the Nis-Element program (Ocaranza et al. J. Hypertens., 28:1054-64, 2010). All measurements were performed by a blinded observer, and at least 80 images of cells per animal, which were randomly selected, were analyzed.

TGF-β mRNA = experiment: Angiotensin II infusion model: TGF-β mRNA levels in the aortic wall; type: in vivo, rat; conditions: normalized to 18S rRNA
Procedure: as §1, §2

angiotensin-(1-9) = conditions: administration of the drug; cited from earlier work
rat mesenteric arteries = experiment: Contractility studies in perfused, pressurized mesenteric arteries; conditions: co-incubated with angiotensin-(1-9)
Procedure: The change in diameter of rat resistance (mesenteric) arteries was determined, they were then perfused and pressurized under physiological conditions, in response to different substances, according to a methodology previously described (Gonzalez et al. Hypertension 45:853-9, 2005). Briefly, male rats (Sprague Dawley, 150-200 g) were euthanized for dissection of mesenteric vascular territory, avoiding direct manipulation of arterial or venous tissue. Mesenteric small arteries (200-300 micrometers) were isolated, surgically eliminating adventitial tissue under a zoom stereo microscope (Olympus SZ61). The arteries were perfused intraluminally into a thermoregulated bath at controlled pressure and flow, with perfusion solution (modified Krebs, KRB) of the following composition, in mmol/L: NaCl, 130; CaCl2, 2.5; NaHCO3, 25; MgSO4, 1.2; NaH2PO4, 1.2; KCl, 4.7; glucose, 5.5, pH 7.4. Before use, KRB was gassed with a mixture of 95% O2 and 5% CO2. For perfusion, the artery was cannulated with a glass micropipette (outer diameter 164μ), secured with 5-0 silk suture. The arteries were perfused with 10-20 μL/min KRB, so as to achieve transmural pressure of 60 mmHg. After a rest period of 20 minutes, each artery was incubated in the presence of a vasoconstrictor (100 μM phenylephrine) for two minutes and an endothelial NO production agonist (1 μM acetylcholine). […]

## Asp-Arg-Val-Tyr-Ile-His-Pro-Phe [angiotensin II, infused to induce hypertension in the model, reference compound]
MCP-1 mRNA
  MCP-1 mRNA levels: no differences
[1]
  ratio of tunica media area (TMA) to LA: increase
  thickness of the tunica media (TMT): increased significantly
  vascular lumen area (LA): no change
Collagen I
  increase of collagen I as compared to the Sham control group: 4.5 times
[2]; 1st week of infusion
  SBP 1st week: 130 ± 4 mmHg
[2]; 2nd week of infusion
  SBP 2nd week: 154 ± 10 mmHg
[2]; baseline, tail plethysmography
  Initial SBP: 121 ± 9 mmHg
[2]; rats, infusion for 14 days
  CM: 899 ± 28 mg
  RCM (MV/MC): 348 ± 18
[3]; left ventricle
  cardiomyocyte cell area: 282±2 μm^2
  cardiomyocyte perimeter: 66.2±0.3 μm
[3]
  increase in cell area as compared to the Sham control group: 37%
  increase in perimeter as compared to the Sham control group: 18%
TGF-β mRNA
  increase of TGF-β mRNA in relation to Sham control: 12.8 times

## CCOC(=O)[C@H](CCc1ccccc1)N[C@@H](C)C(=O)N1CCC[C@H]1C(=O)O [enalapril]
angiotensin-(1-9)
  plasma and/or tissue levels of angiotensin-(1-9): increase

## COC(=O)[C@@H](N)CCCNC(=N)N[N+](=O)[O-] [L-NAME, reference compound]
Rat mesenteric arteries
  effect of nitric oxide synthase inhibitor on the vasodilator effect of angiotensin-(1-9): decreased the vasodilator effect
